Data from PubChem BioAssay (NCI).
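Each compound was tested at five concentrations against cells in 96-well plates for 48 hours. TGI marks complete inhibition of growth.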

What was measured:
Assay in all cases: DTP human tumour cell line panel, 48 h
786-0 renal = test system: 786-0 renal
DU-145 prostate = test system: DU-145 prostate
HCC-2998 colon = test system: HCC-2998 colon
HCT-116 colon = test system: HCT-116 colon
HS 578T breast = test system: HS 578T breast
M14 melanoma = test system: M14 melanoma
MDA-MB-435 = test system: MDA-MB-435
NCI/ADR-RES ovarian = test system: NCI/ADR-RES ovarian
SN12C renal = test system: SN12C renal
SW-620 colon = test system: SW-620 colon
SK-MEL-5 melanoma = test system: SK-MEL-5 melanoma
NCI-H522 lung = test system: NCI-H522 lung

| Structure (SMILES) | TGI (786-0 renal) | TGI (DU-145 prostate) | TGI (HCC-2998 colon) | TGI (HCT-116 colon) | TGI (HS 578T breast) | TGI (M14 melanoma) | TGI (MDA-MB-435) | TGI (NCI/ADR-RES ovarian) | TGI (SN12C renal) | TGI (SW-620 colon) | TGI (SK-MEL-5 melanoma) | TGI (NCI-H522 lung) |
| --- | --- | --- | --- | --- | --- | --- | --- | --- | --- | --- | --- | --- |
| Cc1[nH]c2ncn(/N=C/c3ccccc3)c(=N)c2c1Cc1ccccc1 | > 100 µM | > 100 µM | > 100 µM | > 100 µM | > 100 µM | > 100 µM | > 100 µM | > 100 µM | > 100 µM | > 100 µM |  |  |
| CC1CCCc2c(-c3ccc(Cl)cc3)nc(N)c(C#N)c21 (configuration not stated) | > 100 µM | > 100 µM |  | > 100 µM | > 100 µM | 86 µM | > 100 µM | 71.3 µM | > 100 µM | > 100 µM | 38.5 µM |  |
| CC1=NC(=Cc2ccc(Cl)cc2)C(=O)N1n1c(-c2ccccc2)nc2ccccc2c1=O | > 100 µM | > 100 µM | > 100 µM | > 100 µM | 57.3 µM | > 100 µM | > 100 µM |  | > 100 µM | > 100 µM | > 100 µM | 43 µM |
| Nc1ncc2c(n1)-c1ccccc1OC2NC1CC1 (configuration not stated) | > 100 µM | > 100 µM |  | > 100 µM | > 100 µM | > 100 µM | > 100 µM | > 100 µM | > 100 µM | > 100 µM | > 100 µM | > 100 µM |
| CN(C)c1ccc(C(C#N)N2CCCN(C(C#N)c3ccc(N(C)C)cc3)C2c2ccc(N(C)C)cc2)cc1 (configuration not stated) | > 100 µM | > 100 µM |  | > 100 µM | > 100 µM | > 100 µM | > 100 µM | > 100 µM | > 100 µM | > 100 µM | > 100 µM | > 100 µM |
| CCOP(=O)(CS(C)=O)O[C@@H]1C[C@H](C)CC[C@H]1C(C)C (some centres not stated) | 6.35 µM | 26.2 µM |  | > 23.9 µM | 11.3 µM | 31.2 µM | 11.9 µM | 26 µM | 6.12 µM | 14.6 µM | 6.85 µM | 6.19 µM |
| CCCOc1ccc(/C=C/c2cc(OC)c(OC)c(OC)c2)cc1 | > 56.3 µM |  | > 100 µM | > 33.3 µM |  | > 100 µM |  |  | > 74 µM | > 100 µM | 0.467 µM | 0.478 µM |
| O=S(=O)(CC1=NC2C=CC=CC2N=C1)NCc1ccccc1 (configuration not stated) | > 100 µM |  | > 100 µM | > 100 µM |  | > 100 µM |  |  | > 100 µM | > 100 µM | > 100 µM | > 100 µM |
| c1ccc(C2=NN(c3ccccc3)C3(S2)SC(c2ccccc2)(c2ccccc2)c2ccccc23)cc1 (configuration not stated) | > 100 µM |  | > 100 µM | > 100 µM |  | > 100 µM |  |  | > 100 µM | > 100 µM | > 100 µM | > 100 µM |
| CSC1=N/C(=C\c2cccs2)C(=O)N1CN1CCCCC1 | > 100 µM | > 100 µM |  | > 100 µM | > 100 µM | > 100 µM | > 100 µM | > 100 µM | > 100 µM | > 100 µM | > 100 µM |  |
| COC(=O)c1c/c(=N\NC(=O)CC(=O)Nc2ccccc2Cl)c2ccccc2o1 | > 100 µM |  | > 100 µM | > 100 µM |  | > 100 µM |  |  | > 100 µM | > 100 µM | > 100 µM | > 100 µM |
| Oc1cn(-c2ccc(Cl)cc2)nc1-c1nnc(Nc2ccccc2)o1 | 36.1 µM | 42.1 µM |  | 29.6 µM | 51.2 µM | 37.5 µM | 34.3 µM | 30.1 µM | 32.2 µM | 41 µM | 23.6 µM | 35.4 µM |
| COc1ccc(NC=O)c(C(O)CCNC(C)=O)c1 (configuration not stated) | > 100 µM | > 100 µM |  | > 100 µM | > 100 µM | > 100 µM | > 100 µM | > 100 µM | > 100 µM | > 100 µM | > 100 µM | > 100 µM |
| Cc1ccc2sc3cc(=O)cc(C)c-3nc2c1 | > 100 µM |  | > 100 µM | > 100 µM |  | > 100 µM |  |  | > 100 µM | > 100 µM | 38.4 µM | > 100 µM |
| NC(=S)N/N=C/c1cc(CN2CCOCC2)c(N)cn1 | > 100 µM | > 100 µM |  | > 100 µM | > 100 µM | 50.9 µM | > 100 µM | 94.3 µM | > 100 µM | > 100 µM | > 100 µM |  |
| NN/C(=N\S(=O)(=O)c1cc(Cl)c(Oc2ccc([N+](=O)[O-])cc2Cl)c(Cl)c1)Nc1ccc(Cl)cc1 | 36.8 µM | 38.4 µM |  | 29.1 µM |  | 31.2 µM |  | 67.9 µM | 33.2 µM | > 100 µM | 29.4 µM |  |
| COc1cc(C2c3cccc4cccc(c34)C3CCC(=O)N32)cc(O)c1O (configuration not stated) | > 50 µM | > 50 µM |  | > 50 µM |  | > 50 µM | > 50 µM | > 50 µM | > 50 µM | > 50 µM |  |  |
| CN1CC=C(OP(=O)(NCc2ccccc2)N(CCCl)CCCl)CC1 (configuration not stated) | > 100 µM | > 100 µM | > 100 µM | > 100 µM | > 100 µM | > 100 µM | > 100 µM | > 100 µM | > 100 µM | > 100 µM |  |  |
| CSc1nc(C)cc(Nc2ccc(O)c(CN3CCCCC3)c2)n1 | 49.1 µM | > 100 µM |  | > 100 µM | > 100 µM | 31.8 µM | > 100 µM | > 100 µM | > 100 µM | > 100 µM | > 100 µM | > 100 µM |
| CCOC(=O)CCc1c(C(=O)OCC)[nH]c(/C=C2/NC(=O)C(C)=C2CC)c1C | 46.2 µM | 44.6 µM |  | 28.1 µM | 95.3 µM | 20.8 µM | 19.7 µM | 36.9 µM | 37.9 µM | > 100 µM | 13.2 µM | 31.8 µM |
| O=C(Nc1ccc(C(F)(F)F)cc1[N+](=O)[O-])C(=O)C(C(=O)c1ccc2ccccc2c1)C1OC(=O)c2ccccc21 (configuration not stated) | 19.5 µM |  | 18.3 µM | 15.3 µM |  | 28.1 µM |  |  | 33.5 µM | 21.9 µM | 18.8 µM | 16.4 µM |
